Data set [1] relates to HIV in VB T lymphoma cell line. The data set is described as follows: Inhibition of HIV mediated cytopathic effects (multinucleated giant/syncytial cell formation) in acutely infected VB tumor cell line. It counts as cell-based. As for the experimental part: (§1) 1. […] All three viral strains were grown in the Tissue Culture Laboratory of the AIDS Activity Division of San Francisco General Hospital where titers of […] infectious units per ml were routinely achieved.
(§2) 2. Source of cells: The VB cell line used in Example 1 is a T lymphoma cell line that is highly susceptible to infection with HIV, and expresses high levels of cell surface CD4 molecules. This cell line forms syncytia within two days after infection with all strains of HIV tested to date. […] This is used to quantitate infection in the absence of syncytial formation, infection being quantitated by immunofluorescence assays. The HXB/H9 cell line (Example 6) is an H9 cell population that chronically produces the HTLV-IIIB strain of HIV and is utilised in experiments testing antiviral effects on chronically infected cell lines. Human macrophages were prepared from peripheral blood mononuclear cells either obtained from the blood bank as a buffy coat, or as a leukophoresis preparation. Crowe et al. supra have devised an assay system that allows quantitation of HIV infection, and inhibition of infection using immunocytofluorographic analysis. In order to quantitate HIV infection in macrophages, they grow macrophages in Teflon (Trade Mark) culture vessels which maintain macrophages in suspension in vitro culture for up to six months. Cell surface and cytoplasmic immunofluorescence staining is then performed to quantitate antigens in macrophages by flow cytometry.
5. Inhibition of acute infection: Several assays were utilized to test for inhibition of acute infection; these included:
(a) Inhibition of multinucleated giant cell formation in acutely infected VB cells infected at a multiplicity of infection of 1, and scored two days after infection in the presence or absence of varying concentrations of drug, for the formation of multinucleated giant cells. (free virus is washed out after a one hour incubation pretreatment at room temperature). […] Supernatants were also isolated and the level of HIV p24 antigen determined. Infectious virus was measured in treated cultures by performing a syncytial assay as described above.
(§3) Compounds A and B were tested for inhibition of T lymphoma cell cytopathic effect at various drug concentrations after acute infection with HIV for 48 hours. […] It is possible that the diminished effects noted in later experiments could have been secondary to drug stability problems.
For orientation: Cytopathic effects are the visible damage that an infection or toxin causes in cultured cells.

Data set [2] has as its system HIV in activated peripheral blood lymphocytes. Kind of data set: Inhibition of HIV mediated cytopathic effects / p24 antigen production in activated peripheral blood lymphocytes. Conditions: for p24 antigen production: activated PBL, about 7 days after infection, FIG. 2. It counts as cell-based. As for the experimental part:
as §1
(§4) 4. HIV soluble p24 antigen detection: Soluble p24 antigens were measured with the Abbott HIV antigen detection system.
(b) Although the VB T lymphoma cell line behaves in a similar manner to peripheral blood CD4 positive T lymphocytes in regard to HIV induced cytopathic effects, the above described experiments were performed on phytohemagglutinin (PHA) activated lymphocytes to determine whether lymphocytes are more or less sensitive to Compounds A and B than is the VB cell line. In this assay system, at the time that multinucleated giant cells appeared within infected lymphocyte cultures, the supernatants were analyzed for the presence of HIV p24 antigens and were titered on indicator VB lymphoma cells to determine the titer of infectious virus present at each point.
To test whether the effects of compounds A and B on acute VB T lymphoma infection would be mimicked by activated peripheral blood lymphocytes (PBC), HIV at a multiplicity of infection of one was added to lymphocytes that had been activated for 48 hours with 2 μg per ml of PHA. After the initial infection for one hour, the activated lymphocytes were washed and resuspended for the one week of culture. Multinucleated giant cells began to form approximately 7 days after the initial infection, at which time the culture supernatants were harvested and tested for the presence of HIV p24 antigens. The accumulation of HIV p24 antigens in the supernatant is representative of production of HIV from infected cells.

Data set [3] deals with HIV in human macrophages. Kind of data set: Inhibition of HIV production in normal human macrophages (supernatant p24, acute infection). The class given is cell-based. On the procedure: as §1, §2, §4
(c) To test whether Compounds A and B were effective at blocking acute infection of macrophages, macrophages from Teflon cultures were exposed at a multiplicity of 1 to HIV-DV in the presence or absence of various concentrations of drug (Examples 3-5). Normally, HIV expression peaks in human macrophages at approximately ten days after initial infection. Therefore, after infection for one hour at room temperature, followed by a wash and resuspension of the macrophages in various drug concentrations, macrophages were stained for the presence of p24 antigen at day ten. Culture supernatants from these macrophages were assayed for the presence of soluble p24, and infectious virus as described above.
To test whether compounds A and B might be active at inhibiting infection of normal human macrophages, a spectrum of drug concentrations were tested for inhibition of acute infection, and inhibition of HIV expression in chronically infected macrophages. […] After acute infection (one hour) cells were incubated in various concentrations of compounds A and B, and 7 days after the initial infection supernatants were harvested for p24 antigen quantitation. […]

For data set [4], the system named is HIV in human macrophages. The data set is described as follows: Inhibition of cytoplasmic HIV p24 antigen in HIV-infected macrophages. It counts as cell-based. Conditions: 10^-4 molar; three donors; FIG. 4. On the procedure: as §1, §2
3. Flow cytometry: An Ortho Cytofluorgraf II-S (Trade Mark) that has a biohazard containment flow cell was used for analysis of HIV infected samples. HIV p24 antigens were detected utilizing a mouse monoclonal anti-p24 (du Pont), and mouse antibodies were identified utilizing an FITC conjugated goat anti-mouse IgG. […]
The cells from the experiment described in Example 3 were analysed, and the cytoplasm was analysed for the presence of HIV p24 to directly test whether HIV p24 antigen production was inhibited within those infected cells. […]

The next data set has as its system HIV in HXB/H9 cell line. Kind of data set: Antiviral testing of chronically HIV infected cell line HXB. It counts as cell-based. Particulars: other than killing with compound B at 10^-4 molar. As for the experimental part: as §1
as §2, with “Human macrophages were prepared from peripheral blood mononuclear cells either obtained from the blood bank as a buffy coat, or as a leukophoresis preparation.” left out, “cytometry. […]” for “cytometry.”

Data set [5] has as its system HIV in chronically infected human macrophages. Kind of data set: Antiviral testing of chronically HIV infected macrophages. The class given is cell-based.
Description: as §2
3. Flow cytometry: An Ortho Cytofluorgraf II-S (Trade Mark) that has a biohazard containment flow cell was used for analysis of HIV infected samples. HIV p24 antigens were detected utilizing a mouse monoclonal anti-p24 (du Pont), and mouse antibodies were identified utilizing an FITC conjugated goat anti-mouse IgG.
6. Analysis of chronically infected cells: To determine whether compounds A and B are effective at inhibiting HIV expression in macrophages and chronically infected T cells, the following experiments were performed. The chronically infected T cell line, HXB/H9 was exposed to various concentrations of drug for four days in vitro. At four days, the HXB cells were assayed for the presence of p24 intracytoplasmically, and supernatants were assayed for the presence of infectious virus as described above.
Because macrophages can be infected and produce HIV for very long periods of time without substantial loss of viability, chronically infected cells were tested, specifically a population that was between 30 and 50% HIV antigen positive, for inhibition of cytoplasmic HIV p24 antigen production. FIG. 5 indicates the results of three separate experiments carried out.

The test system of a further data set is VB T lymphoma cell line. The data set is described as follows: Nonspecific toxicity to VB cell line. The class given is cell-based, human. Conditions: 10^-4 molar. On the procedure:
(§5) 7. Analysis of nonspecific toxicity to the target cells with Compounds A and B. The VB, H9 and HXB cell lines were exposed to different concentrations of Compounds A and B as were normal human macrophages for the length of time the drug was in contact with each cell line as described in the above assays. Cell numbers were counted, and live versus dead were determined by Trypan blue exclusion assays. These tests were required to determine a therapeutic index between nonspecific toxic effects on the described cells, compared with potential effective antiviral effects in vitro (Example 6).
as §3

The subject of data set [6] is peripheral blood lymphocytes. The data set is described as follows: Nonspecific toxicity to peripheral blood lymphocytes. The class given is cell-based, human.
A further data set deals with normal human macrophages. The data set is described as follows: Nonspecific toxicity to normal human macrophages. It counts as cell-based. As for the experimental part:
as §5

The next data set deals with HXB cell line. The data set is described as follows: Killing of HXB cells. It counts as cell-based, human. Particulars: 10^-4 molar. On the procedure:
as §5

Another data set deals with tumor cell lines. The data set is described as follows: Toxicity to tumor cell lines, Examples 1 to 7. Conditions: 10^-4 molar; all experiments of Examples 1 to 7. It counts as cell-based, human. On the procedure:
as §5

Another data set deals with HIV. The data set is described as follows: Oral dehydroepiandrosterone sulphate in AIDS patients, T4 cell count. The class given is in vivo, human patients. Particulars: patients X and Y, 300 mg once per day then 100 mg, day 5 to day 17. On the procedure: Dehydroepiandrosterone sulphate was measured into unit doses of 300 mg and 100 mg and each unit dose enclosed in a soft gelatin capsule.
(A) A patient sero positive for HIV and diagnosed as suffering from AIDS was treated as follows. For twelve consecutive days, the patient was treated by administering the encapsulated compound orally to the patient. For the first eleven days, a unit dose of 300 mg was administered, once per day. On the twelfth day, the patient was given a single unit dose of 100 mg of the compound.
Blood samples were taken from the patients on five occasions over the twenty-six day period. The first tests were carried out on each patient on day 1 and included measurements of T1, T4 and T8 cell counts, as well as, sedimentation rate. The treatment commenced on day 5, and continued to day 17. From day 5 to day 16, each patient, as already discussed, received a single unit dose of 300 mg of dehydroepiandrosterone sulphate orally and on day 17 100 mg was administered. The aforementioned tests were repeated on each patient on day 9, day 17, day 24 and day 26.

The source of these data is patent US4956355A, “Agents for the arrest and therapy of retroviral infections” (Colthurst Limited, priority 1987, dated 1990).

With `C[C@]12CC[C@H](O)C[C@@H]1CC[C@@H]1[C@@H]2CC[C@]2(C)C(=O)[C@H](Br)C[C@@H]12` [B, 16α-bromoepiandrosterone], the “inhibition of HIV mediated multinucleated syncytial cell formation, compared with compound A” value in data set [1] (VB cells, acute infection, 48 hours, FIG. 1, average of two experiments) is listed as “more active”. Moreover, in data set [1] (acute infection), the “antiviral effects in comparison with AZT, T lymphoma cells” value is “inferior”. Also, the “antiviral effect in acute infection studies of T lymphoma cells” value in data set [1] (acute infection, conclusions) is given as “mild antiviral effect”. In addition, the “inhibition of cytopathic effect in two subsequent experiments” value in data set [1] (compounds diluted in DMSO, possibly secondary to drug stability problems) is reported as “less striking effect”. In addition, the p24 antigen production result in [2] (10^-4 molar) is recorded as “moderately inhibited”; in [2] (10^-5 molar) it was “slightly less inhibited”. The “antiviral effects in comparison with AZT, lymphocytes” value in data set [2] (acute infection) is reported as “inferior”. For the same compound, the “antiviral effect in acute infection studies of lymphocytes” value in [2] (acute infection, conclusions) is listed as “mild antiviral effect”. Besides, in the data set with HIV in human macrophages [3] (10^-4 through 10^-8 molar, 7 days after acute infection, FIG. 3), the “decrease in production of HIV p24 antigens (supernatant)” value is reported as “approximately 50%”. For the same compound, the “HIV infection and HIV expression in macrophages” value with HIV in human macrophages [3] (in vitro, reproducible, six separate monocyte/macrophage donors) is “inhibit HIV infection and HIV expression in macrophages”. Also, the “HIV p24 cytoplasmic antigen production” value in the data set with HIV in human macrophages [4] is recorded as “substantially inhibited”. In the data set on HIV in HXB/H9 cell line, the “inhibition of HIV production of cytopathic effects in chronically infected lymphoma cell line” value was “no specific inhibition”. Besides, the “inhibition compared with inhibition of acute infection of macrophages” value in [5] (10^-4 and 10^-5 molar, FIG. 5 vs FIG. 4) was “somewhat less than the inhibition of acute infection of macrophages”. The “inhibition of cytoplasmic HIV p24 antigen production in chronically infected macrophages” value in data set [5] (both 10^-4 and 10^-5 molar, three experiments, FIG. 5) is recorded as “some inhibition”. Further, in the data set on VB T lymphoma cell line, the “toxicity to VB T lymphoma cell line” value is reported as “extremely toxic”. For the same compound, the “toxicity with the PBL cultures” value in [6] (10^-4 and 10^-5 molar) is “No appreciable toxicity”. Also, the “extreme toxicity seen in VB cells, in normal peripheral blood lymphocytes” value in [6] (10^-4 molar) was “not shared by either the normal peripheral blood lymphocytes or macrophages”. In addition, the “toxicity to peripheral blood lymphocytes” value in data set [6] (10^-4 to 10^-8 molar) was “nor was there appreciable toxicity”. The “extreme toxicity seen in VB cells, in macrophages” value with normal human macrophages (10^-4 molar) is “not shared by either the normal peripheral blood lymphocytes or macrophages”. Also, the “toxicity in normal macrophages” value in the data set with normal human macrophages (10^-4 to 10^-8 molar) is given as “not appreciable toxicity”. In addition, the “killing of HXB cells” value with HXB cell line was “killing”. Also, the “toxicity to tumor cell lines” value in the data set with tumor cell lines was “appreciable toxicity”.
For `C[C@]12CC[C@H](OS(=O)(=O)O)CC1=CC[C@@H]1[C@@H]2CC[C@]2(C)C(=O)CC[C@@H]12` [dehydroepiandrosterone sulphate], in the data set on HIV, the T4 cell count entry is recorded as “stabilise”.
